Where two headings read alike, the source gives them in different places.
How the values were obtained:
[1] = tested on: adrenergic beta-receptors; assay: Median effective Dose (ED50) in the dog; assay type: in vivo
Description: The data given in Table I evidence similar toxicity of the three different compounds.
In this regard the following Table II gives the respective data for the three compounds (±); (-); (+).

[2] = tested on: spontaneously beating right atrium preparations; assay: chronotropic effect on spontaneously beating right atria from reserpinized guinea-pigs; parameters: species or system guinea-pig
Procedure: Experiments were carried out on spontaneously beating right atrium preparations taken from the hearts of guinea-pigs of both sexes, weighing 300 to 400 g.
Twenty hrs before sacrifice the animals were injected intramuscularly with reserpine dissolved in 20% ascorbic acid in 2 doses of 2 mg/kg each at 24 hrs distance. An equal number of animals received the reserpine solvent only and were kept as controls.
The preparations were suspended in 10 ml vessels containing Krebs-Henseleitsolution aerated with […] and maintained at a temperature of 35° C.
The right atria were fixed to the vessel base by one end and connected to a transducer of a semiisometric microdynanometer (Basile) by the other end.
Heart rate was recorded directly from the tracing.
All the preparations were subjected to a reset traction of 0.6-0.8 g and allowed to stabilize for 1 hr before starting experiments.
The substances were placed in the vessel in cumulative concentrations. Each concentration was increased by three times as compared with the previous one and a 10 min. interspace was left between concentrations.
The control preparations were made by replacing in the vessel the only solvent (H2 O) in the same volumes as for the drug solutions. The effect excerted by the drug and the solvent on atrial rate was evaluated as per-cent variation as compared with baseline values. The significance of the differences between treated and control animals was assessed by Dunnett's test.
***In order to be able to compare the effect of combined doses of the
enantiomers with those of equal doses of the single enantiomers racemic
moprolol was used in concentration double with respect to the single

[3] = Lethal Dose50 (LD50) in the mouse; assay type: in vivo; settings: mouse, in vivo, in the mouse
Description: (§1) In this regard the following Table I reports the LD50 of the single isomers and of the racemic product.

mouse = assay: Lethal Dose50 (LD50) in the mouse; assay type: in vivo
Description: as §1

[4] = tested on: adrenergic beta-receptors; assay: inhibition of hemodynamic effects of isoproterenol (beta-receptor stimulation) in anesthetized dogs; assay type: in vivo, dog; settings: isoproterenol 0.25 μg/Kg/minute i.v.; for beta-blocking activity (in words): anesthetized dogs, duodenal administration
Description: In order better to clarify the advantages connected with the use of pharmaceutical compositions according to the present invention, the attached drawings include three diagrams relating to certain experiments conducted in anesthetized dogs. These diagrams concern the inhibition by recemic moprolol, it laevorotatory optical isomer and its dextro-rotatory optical isomer, of certain homodynamic effects due to stimulation of the adrenergic beta-receptors following on intravenous infusion of isoproterenol at a dose of 0.25 μg/Kg/minute.
The curves therein reported refer to the means of the results of three tests for each substance.

[5] = listed as laevorotatory moprolol
[6] = reserpinized guinea-pig right atrium
[7] = Cavia porcellus, read-out: Chronotropic effect (% variation)

COc1ccccc1OCC(O)CNC(C)C (racemic) [Moprolol (±), 1-(o-methoxy-phenoxy)-3-isopropyl-amino-propane-2-ol]
Median effective Dose (ED50) [1]: 0.150 mg/kg weight animal
cardiac action (in words) [2]: cardiac depressant action
activation at 0.01 µM ([2]; Cavia porcellus, column 1 × 10^-8, racemate used in double concentration vs single enantiomers, read-out: Chronotropic effect (% variation)): 0%
LD50 [3]: 712 mg/kg

CC(C)NCC(O)COc1cccc2ccccc12 (single isomer, unassigned) [Moprolol 1-propanolol]
atr. block (preparations blocked / total) ([2]; 1 × 10^-4 M): 4/4
Chronotropic effect (% variation) ([2]; 1 × 10^-4 M, vs baseline, mean ± S.E.): atr. block
activation at 10 µM ([2]; Cavia porcellus, 1 × 10^-5 M, vs baseline, mean ± S.E., read-out: Chronotropic effect (% variation)): -21.5%
activation at 1 µM ([2]; Cavia porcellus, 1 × 10^-6 M, vs baseline, mean ± S.E., read-out: Chronotropic effect (% variation)): -5.7%
activation at 0.1 µM ([2]; Cavia porcellus, 1 × 10^-7 M, vs baseline, mean ± S.E., read-out: Chronotropic effect (% variation)): -2%
activation at 0.01 µM ([2]; Cavia porcellus, 1 × 10^-8 M, vs baseline, mean ± S.E., read-out: Chronotropic effect (% variation)): -0.5%
activation at 30 µM ([2]; Cavia porcellus, 3 × 10^-5 M, vs baseline, mean ± S.E., read-out: Chronotropic effect (% variation)): -37%
activation at 3 µM ([2]; Cavia porcellus, 3 × 10^-6 M, vs baseline, mean ± S.E., read-out: Chronotropic effect (% variation)): -11.2%
activation at 0.3 µM ([2]; Cavia porcellus, 3 × 10^-7 M, vs baseline, mean ± S.E., read-out: Chronotropic effect (% variation)): -3.5%
activation at 0.03 µM ([2]; Cavia porcellus, 3 × 10^-8 M, vs baseline, mean ± S.E., read-out: Chronotropic effect (% variation)): -0.75%
minimal effective concentration ([2]; Cavia porcellus, reserpinized guinea-pig right atrium, read-out: concentration from which depressant effect on atrial rate starts): ≥ 1 µM
effect on atrial rate (in words) ([2]; reserpinized guinea-pig right atrium, listed as Laevorotatory isomer of propanolol): no stimulant effect but a depressant effect
effect on atrial rate (in words) ([2]; reserpinized guinea-pig right atrium, listed as laevorotatory isomer of propanolol): more marked than that evoked by laevorotatory isomer, dextro-rotatory isomer and racemic moprolol

COc1ccccc1OCC(O)CNC(C)C (single isomer, unassigned) [Moprolol (+)]
Median effective Dose (ED50) [1]: nil
activity at effective dose (in words) [1]: without any activity whatsoever
Chronotropic effect (% variation) ([2]; 1 × 10^-4 M, vs baseline, mean ± S.E., listed as d-moprolol): -37.5%
Chronotropic effect (% variation) ([2]; 1 × 10^-5 M, vs baseline, mean ± S.E., listed as d-moprolol): -7.25%
Chronotropic effect (% variation) ([2]; 1 × 10^-6 M, vs baseline, mean ± S.E., listed as d-moprolol): -2%
Chronotropic effect (% variation) ([2]; 1 × 10^-7 M, vs baseline, mean ± S.E., listed as d-moprolol): -2.7%
Chronotropic effect (% variation) ([2]; 1 × 10^-8 M, vs baseline, mean ± S.E., listed as d-moprolol): -1.25%
Chronotropic effect (% variation) ([2]; 3 × 10^-5 M, vs baseline, mean ± S.E., listed as d-moprolol): -14.7%
Chronotropic effect (% variation) ([2]; 3 × 10^-6 M, vs baseline, mean ± S.E., listed as d-moprolol): -6%
Chronotropic effect (% variation) ([2]; 3 × 10^-7 M, vs baseline, mean ± S.E., listed as d-moprolol): -2.7%
Chronotropic effect (% variation) ([2]; 3 × 10^-8 M, vs baseline, mean ± S.E., listed as d-moprolol): -4%
effect on atrial rate (in words) ([2]; reserpinized guinea-pig right atrium, listed as Dextro-rotatory isomer of moprolol): no stimulant effect in a range of concentrations which have proved to be active for laevorotatory isomer of moprolol. On the contrary, they give rise to a depressant effect
toxicity (in words) (mouse; LD50, mouse): same toxicity as the laevorotatory isomer and the racemic form
Lethal Dose50 (LD50) (mouse; in the mouse): 720 mg/kg weight animal
beta-blocking activity (in words) ([4]; listed as dextro-rotatory isomer): practically nil
beta-blocking activity (in words) ([4]; listed as dextrorotatory optical isomer): almost complete lack of beta-blocking activity

COc1ccccc1OCC(O)CNC(C)C (single isomer, unassigned) [Moprolol (-)]
Median effective Dose (ED50) [1]: 0.0781 mg/kg weight animal
activity relative to the racemic form (times more active) ([1]; effective dose): 2 times
Median effective Dose (ED50) [1, 5]: 0.0781 mg/kg weight animal
cardiac action (in words) [2]: cardiac stimulant action
Chronotropic effect (% variation) ([2]; 1 × 10^-4 M, vs baseline, mean ± S.E., listed as 1-moprolol): -10.8%
Chronotropic effect (% variation) ([2]; 1 × 10^-5 M, vs baseline, mean ± S.E., listed as 1-moprolol): +4%
Chronotropic effect (% variation) ([2]; 1 × 10^-6 M, vs baseline, mean ± S.E., listed as 1-moprolol): +8.8%
Chronotropic effect (% variation) ([2]; 1 × 10^-7 M, vs baseline, mean ± S.E., listed as 1-moprolol): +10.4%
Chronotropic effect (% variation) ([2]; 1 × 10^-8 M, vs baseline, mean ± S.E., listed as 1-moprolol): +8.2%
Chronotropic effect (% variation) ([2]; 3 × 10^-5 M, vs baseline, mean ± S.E., listed as 1-moprolol): +0.2%
Chronotropic effect (% variation) ([2]; 3 × 10^-6 M, vs baseline, mean ± S.E., listed as 1-moprolol): +7.8%
Chronotropic effect (% variation) ([2]; 3 × 10^-7 M, vs baseline, mean ± S.E., listed as 1-moprolol): +10.4%
Chronotropic effect (% variation) ([2]; 3 × 10^-8 M, vs baseline, mean ± S.E., listed as 1-moprolol): +11.4%
concentration range of stimulant effect on atrial rate [2, 6]: 10 to 1000 nM
effect on atrial rate (in words) ([2]; reserpinized guinea-pig right atrium, listed as Laevorotatory isomer of moprolol): causes a stimulant effect on atrial rate
LD50 [3]: 605 mg/kg
significance (P) of correlation coefficient of dose-dependent inhibition ([4]; 0.25, 0.0625 and 0.125 mg/kg): < 0.01
beta-blocking activity (in words) ([4]; listed as laevoratatory isomer of moprolol): exactly double that of racemic moprolol
beta-blocking activity (in words) [4, 5]: particularly evident for the laevorotatory form in a dose-dependent manner

Cl.NCCc1ccc(O)cc1 [Tyramine HCl]
activation at 0.1 µM [2, 7]: 0%
activation at 0.3 µM [2, 7]: 0%
activation at 1 µM [2, 7]: 0%
activation at 3 µM [2, 7]: 0%
activation at 10 µM [2, 7]: -1 ± 1%
activation at 30 µM [2, 7]: -3%
activation at 100 µM [2, 7]: -3%
effect on atrial rate (in words) [2, 6]: devoid of positive chronotropic effect

— US4683245A, “Laevorotatory antipode of moprolol as an antihypertensive” (SIMES S.p.A. Societa Italiana Medicinali e Sintetici, priority 1979, dated 1987)
